# Tests used:
# [1] = system: Mmp3, Mmp13, and COX2; assay: Mmp3, Mmp13 and COX2 expression in IL-1β-treated mouse FLS; type: cell-based
# Protocol: (§1) Anti-chemokine and anti-inflammatory effects of 3′-sialyllactose were examined. First, purity of mouse FLS was examined by FACS analysis, and then no effects of 3′-sialyllactose on FLS proliferation and cytotoxicity were examined by WST-1 assay (see FIGS. 14A-A to 14A-C). […] Therefore, in a subsequent in vitro experiment, 3′-sialyllactose was used at a concentration of 0 μM to 250 μM. In order to examine effects of 3′-sialyllactose on IL-1β-, IL-6-, IL-17-, and TNF-α-induced chemokines (e.g., CCL2, CCL5, CCL7, CXCL1, CXCL2, and CXCL5), pro-inflammatory cytokines (IL-1, IL-6, and TNF-α), and COX2 expression, IL-1β-, IL-6-, IL-17-, and TNF-α-stimulated human RA-FLS and mouse FLS were treated with 3′-sialyllactose (100 μM or 250 μM) for 24 hrs.
# FIGS. 14A-A and 14A-B show FACS results of analyzing marker expression on the FLS surfaces in a mouse according to passages (FIG. 14A-A: CD90.2; FIG. 14A-B: CD14), and a graph of cytotoxicity confirmed by WST-1 assay (FIG. 14A-C), and FIG. 14B is a graph showing Mmp3, Mmp13, and COX2 expression levels according to lactose, sialic acid, and 3′-sialyllactose in IL-1β-treated mouse FLS.
# [2] = system: chondrocytes; assay: Cytotoxicity of sialyllactose on chondrocytes (EZ-Cytox cell viability assay); type: cell-based, mouse; conditions: 0 μM, 10 μM, 50 μM, 100 μM, or 250 μM, 24 hrs
# Protocol: Chondrocytes were obtained from cartilage tissues derived from femoral heads, femoral condyles, and tibial plateaus of normal mouse at 5 days after birth. The obtained chondrocytes were cultured in DMEM medium (Gibco, USA) containing 10% (v/v) fetal bovine serum (Gibco, USA), 50 μg/ml of streptomycin (Sigma-Aldrich, USA) and 50 unit/ml of penicillin (Sigma-Aldrich, USA).
# In order to confirm that 3′- or 6′-sialyllactose has no cytotoxicity on chondrocytes, chondrocytes were cultured in a 96-well culture plate at a density of 9×10^3 cells/well, and then treated with 3′- or 6′-sialyllactose (Genechem Inc., Daejeon, Korea) at a concentration of 0 μM, 10 μM, 50 μM, 100 μM, or 250 μM, followed by incubation in a 5% CO2 incubator at 37° C. for 24 hrs. Cytotoxicity of 3′- or 6′-sialyllactose on chondrocytes was confirmed by measuring absorbance at 450 nm using an EZ-Cytox Cell viability assay kit (DoGen, Korea).
# [3] = system: type II collagen (Col2a1); assay: Col2a1 expression in chondrocytes (qRT-PCR, Western blotting); type: cell-based, mouse; conditions: for Col2a1 expression in chondrocytes: 0 to 250 μM, 36 hrs; for Col2a1 expression suppressed by IL-1β in chondrocytes: 5 ng/ml of IL-1β
# Protocol: In order to examine effects of 3′- or 6′-sialyllactose on cartilage formation and regeneration, the chondrocytes obtained in Example 1 were incubated for 36 hrs and then treated with 3′- or 6′-sialyllactose at a concentration of 0 μM, 10 μM, 50 μM, 100 μM, or 250 μM, followed by further incubation for 36 hrs.
# Next, in order to perform qRT-PCR, RNA was extracted from the chondrocytes using a TRI reagent (Molecular Research Center Inc.), and cDNA obtained by reverse transcription of RNA was amplified by PCR using primers of SEQ ID NOS: 1 and 2 under condition of annealing temperature of 55° C. to examine expression of type II collagen (Col2a1, 173 bp) which is essential for cartilage formation. As a control group, Gapdh (450 bp, annealing temperature of 58° C.) was examined by using primers of SEQ ID NOS: 3 and 4.
# Further, a whole cell lysate was extracted from the chondrocytes using a lysis buffer (150 mM NaCl, 1% NP-40, 50 mM Tris, 5 mM NaF) containing protease and phosphatase inhibitor cocktails (Roche), and Col2a1 expression in the cells was examined. Western blotting was performed using anti-Col2a1 antibody (Millipore) and anti-Erk antibody (Cell signaling), and thickness and concentration of Western blot bands were measured by a computer program and relative values thereof were determined by densitometry (FIGS. 4A and 4B).
# IL-1β is a representative inflammatory cytokine inhibiting Col2a1 expression in chondrocytes. Chondrocytes were incubated for 36 hrs, and then treated with 5 ng/ml of IL-1β (GeneScript, USA) for 24 hrs to confirm that Col2a1 expression was decreased by IL-1β.
# In order to examine whether the decreased Col2a1 expression is increased again in chondrocytes by 3′- or 6′-sialyllactose, qRT-PCR and Western blotting were performed in the same manner as in Example 2-1.
# [4] = system: Sox-9; assay: Sox-9 reporter gene luciferase activity in chondrocytes; type: cell-based, mouse; conditions: co-treated with 5 ng/ml IL-1β and 0 to 250 μM for 24 hrs
# Protocol: A Sox-9 reporter gene was prepared by inserting 48-bp Sox9 binding site in the first intron of human Col2a1 gene into the upstream of SV40 promoter in pGL3 vector (Zhou G et al., J Biol Chem 1998, 12, 14989-97).
# 1 μg of the Sox-9 reporter gene was transfected into chondrocytes using lipofectamine 2000 (Invitrogen) for 3 hrs. The transfected cells were co-treated with 5 ng/ml interleukin 1 beta (IL-1β) and 0 μM, 10 μM, 50 μM, 100 μM, or 250 μM of 3′- or 6′-sialyllactose for 24 hrs, and then chondrocytes were recovered to examine Sox-9 activity by luciferase activity.
# [5] = system: Mmp3; assay: Mmp3 expression in IL-1β-treated chondrocytes (qRT-PCR, Western blotting); type: cell-based, mouse; conditions: 5 ng/ml of IL-1β, 0 to 250 μM, 24 hrs; concentration-dependent
# Protocol: (§2) IL-1β is a representative inflammatory cytokine that decreases Col2a1 essential for cartilage formation in chondrocytes and also promotes articular inflammation and cartilage tissue destruction. Chondrocytes were treated with 5 ng/ml of IL-1β by time, and then qRT-PCR was performed using conditions and primers of the following Table 1 according to the method of Example 2-1 to examine inhibition of Mmp3 and Mmp13 expression.
# (§3) Secretory proteins such as Mmp3 and Mmp13 were allowed to react at 0° C. for 20 min after reacting 900 μl of serum-free medium (conditioned medium) with 100 μl of trichloroacetic acid (TCA). Next, a supernatant was discarded by centrifugation at 12,000 rpm and 4° C. for 10 min, and then reacted with 500 μl of 100% cold acetone at […] for 1 hr. The sample reacting with 100% acetone was centrifuged to discard a supernatant, and proteins were finally precipitated and detected. Western blotting was performed using anti-Mmp3 antibody (Abcam) and anti-Mmp13 antibody (Abcam), and thickness and concentration of Western blot bands were measured by a computer program and relative values thereof were determined by densitometry.
# [6] = system: Mmp13; assay: Mmp13 expression in IL-1β-treated chondrocytes (qRT-PCR, Western blotting); type: cell-based, mouse; conditions: 5 ng/ml of IL-1β, 0 to 250 μM, 24 hrs; concentration-dependent
# Protocol: as §2, §3
# [7] = system: extracellular-signal regulated kinase (Erk); assay: Erk phosphorylation in IL-1β-treated chondrocytes (Western blotting, densitometry); type: cell-based, mouse; conditions: 5 ng/ml of IL-1β, 0 μM, 50 μM, 100 μM, or 250 μM
# Protocol: Chondrocytes of mouse knee joint were treated with 5 ng/ml of IL-1β for 10 min to examine activation of extracellular-signal regulated kinase (Erk) through Erk phosphorylation.
# Chondrocytes were co-treated with 5 ng/ml of IL-1β and 0 μM, 50 μM, 100 μM, or 250 μM of 3′-sialyllactose, and Erk phosphorylation increased by IL-1β was confirmed to be decreased by 3′-sialyllactose (FIG. 8).
# [8] = system: DMM-induced osteoarthritis mouse model; assay: DMM-induced osteoarthritis mouse model, oral administration; type: in vivo
# Protocol: All animal experiments were approved by the Animal Care and Use Committee of the University of Ajou. For osteoarthritis models, 8-week-old male C57BL/6 mice were subjected to destabilization of the medial meniscus (DMM) surgery. Mice knee joints were processed for histological analysis 10 weeks after surgery. In detail, the experimental mice also received gavage feeding of PBS containing 3′-sialyllactose (100 mg/Kg) starting at 2 weeks prior to DMM, and oral feeding on every other day during 4 weeks after surgery, and performed three times a week for total 6 weeks until the end of the experiment. Then, the mice were sacrificed. Control mice were administered with PBS in the same manner.
# Knee joints of the mice sacrificed in Example 6-1 were fixed in 4% paraformaldehyde, treated with 0.5 M EDTA (pH 8.0) for 2 weeks, and embedded in paraffin. The paraffin blocks were sectioned at a thickness of 5 μm and serial-sectioned at 40-μm intervals. The paraffin sections were deparaffinized in xylene and hydrated with graded ethanol. Cartilage destruction was detected by Safranin-O staining and scored using the Osteoarthritis Research Society International (OARSI) grading system. Mmp3 (ab52915), Mmp13 (ab51072), Cox2 (SC-1745), pErk ((#9101), IjB (9242), Sox9 (NBP2-24659; Novus, Littleton, USA) and Col2a1 (MAB8887) were immunostained as previously described.
# [9] = system: collagen-induced arthritis (CIA) mouse model; assay: Prophylactic effect in collagen-induced arthritis (CIA) mouse model; type: in vivo; conditions: 100 mg/kg and 500 mg/kg oral, 4 weeks
# Protocol: In order to examine prophylactic effects of 3′-sialyllactose during development of arthritis, collagen-induced arthritis (CIA) mouse model was orally administered with 3′-sialyllactose three times a week for 4 weeks at various concentrations (100 mg/kg and 500 mg/kg). In detail, the mouse models immunized day 1 and day 21 were orally administered with 3′-sialyllactose every other days for 4 weeks after second immunization. Control groups were orally administered with PBS, lactose, or sialic acid.
# [10] = system: mouse models with rheumatoid arthritis; assay: Therapeutic effect in mice with arthritis; type: in vivo; conditions: 500 mg/kg oral every other day for 2 weeks
# Protocol: Next, in order to examine therapeutic effects of 3′-sialyllactose, mice with arthritis were orally administered with 3′-sialyllactose. In detail, 8-week-old DBA mice were immunized day 0 and day 21, and then orally administered with 500 mg/kg of 3′-sialyllactose every other days for 2 weeks. Control groups were administered with lactose (250 mg/kg), sialic acid (250 mg/kg), or MTX (1 mg/kg).
# [11] = system: synovial tissues of ankle and knee joints; assay: Staining of ankle and knee joints in rheumatoid arthritis mice (FLS and immune cell proliferation); type: in vivo, mouse
# [12] = system: mouse FLS; assay: WST-1 assay on mouse FLS; type: cell-based
# Protocol: as §1
# [13] = system: human RA-FLS; assay: Chemokine, pro-inflammatory cytokine and COX2 expression in stimulated human RA-FLS; type: cell-based; conditions: IL-1β-, IL-6-, IL-17-, and TNF-α-stimulated human RA-FLS; 100 μM or 250 μM, 24 hrs
# Protocol: as §1
# [14] = system: mouse FLS; assay: Chemokine, pro-inflammatory cytokine and COX2 expression in stimulated mouse FLS; type: cell-based; conditions: IL-1β-, IL-6-, IL-17-, and TNF-α-stimulated mouse FLS; 100 μM or 250 μM, 24 hrs
# Protocol: as §1
# [15] = system: atopic dermatitis mouse model; assay: Atopic dermatitis mouse model, oral administration; type: in vivo; conditions: 100 mg/kg or 500 mg/kg oral
# Protocol: In order to examine inhibitory effect of 3′-sialyllactose on atopic dermatitis, ear thickness of atopic dermatitis mouse model was examined at 28 days after oral administration of 100 mg/kg or 500 mg/kg of 3′-sialyllactose. Further, the left ear skin of the mouse was cut into thin sections, stained with hematoxylin and eosin (H&E), and stained with toluidine blue.
smiles,measurement,setting,value
OC[C@H]1O[C@@H](O[C@H]2[C@H](O)[C@@H](O)C(O)O[C@@H]2CO)[C@H](O)[C@@H](O)[C@H]1O (stereo partly drawn) [lactose],"Mmp3, Mmp13, and COX2 expression levels, control groups for 3′-sialyllactose",[1],no significant difference
CC(=O)N[C@H]1C([C@H](O)[C@H](O)CO)O[C@@](O[C@@H]2C(O)[C@H](O[C@@H]3C(CO)OC(O)C(O)[C@H]3O)OC(CO)[C@@H]2O)(C(=O)[O-])C[C@H]1O.[Na+] (stereo partly drawn) [3′-sialyllactose],cytotoxicity on chondrocytes,[2],did not show cytotoxicity
same,Col2a1 expression in chondrocytes,[3],increased
same,Col2a1 expression suppressed by IL-1β in chondrocytes,[3],gradually increased
same,Sox-9 activity decreased by IL-1β,[4],restored
same,Mmp3 expression increased by IL-1β in chondrocytes,[5],decreased
same,Mmp13 expression increased by IL-1β in chondrocytes,[6],decreased
same,Erk phosphorylation increased by IL-1β,[7],decreased
same,OARSI scores (cartilage destruction) compared with control mouse,"[8]; 100 mg/Kg gavage, 10 weeks after DMM surgery",remarkably low
same,Cox2 expression (immunohistochemical staining),"[8]; 100 mg/Kg oral, DMM model",decreased
same,Mmp3 expression (immunohistochemical staining),"[8]; 100 mg/Kg oral, DMM model",decreased
same,Mmp13 expression (immunohistochemical staining),"[8]; 100 mg/Kg oral, DMM model",decreased
same,expression of pro-inflammatory cytokines (mouse sera),[9],decreased
same,swelling of CIA mouse model,[9],alleviated
same,expression of pro-inflammatory cytokines (mouse sera),[10],decreased
same,swelling,[10],alleviated
same,proliferation of macrophages by rheumatoid arthritis,"[11]; ankle and knee synovial tissue, anti-CD68 staining",significantly decreased
same,proliferation of FLS by rheumatoid arthritis,"[11]; ankle and knee synovial tissue, anti-CD90.2 staining",significantly decreased
same,proliferation of neutrophils by rheumatoid arthritis,"[11]; ankle and knee synovial tissue, elastase staining",significantly decreased
same,synovial hyperplasia and infiltration of mononuclear cells into the ankle and knee joints,[11]; hematoxylin and Safranin-O staining,inhibit
same,FLS proliferation and cytotoxicity,[12],no effects
same,"expression levels of chemokines, pro-inflammatory cytokines, and COX2",[13],remarkably decreased
same,"expression levels of chemokines, pro-inflammatory cytokines, and COX2",[14],remarkably decreased
same,mouse ear thickness,[15]; 28 days,decreased
same,ear dermal thickness,[15]; concentration-dependent,decreased
same,ear epidermal thickness,[15]; concentration-dependent,decreased
same,number of mast cells in the ear skin (toluidine blue staining),[15]; concentration-dependent,decreased
CC(=O)N[C@H]1C([C@H](O)[C@H](O)CO)O[C@@](OCC2O[C@@H](O[C@@H]3C(CO)OC(O)C(O)[C@H]3O)C(O)[C@@H](O)[C@H]2O)(C(=O)[O-])C[C@H]1O.[Na+] (stereo partly drawn) [6′-sialyllactose],cytotoxicity on chondrocytes,[2],did not show cytotoxicity
same,Col2a1 expression in chondrocytes,[3],increased
same,Col2a1 expression suppressed by IL-1β in chondrocytes,[3],gradually increased
same,Sox-9 activity decreased by IL-1β,[4],restored
same,Mmp3 expression increased by IL-1β in chondrocytes,[5],decreased
same,Mmp13 expression increased by IL-1β in chondrocytes,[6],decreased
